Read-outs that look alike come from different tables or passages of the source.
Legend:
[1] = system: False wireworm larvae (Eleodes suturalis); assay: False Wireworm Control (treated soil, dust on talc); assay type: in vivo; details: 144 h, potting soil, mortality after 6 days, read-out: Percent Control of False Wireworms; for mortality at 1120.85 g/ha: 1 lbs./Acre; for mortality at 11208.5 g/ha: 10 lbs./Acre; for mortality at 56042.5 g/ha: 50 lbs./Acre
Protocol: (§1) Compounds are prepared as dusts on talc. The compounds are dissolved in acetone, and appropriate rates obtained by serial dilution. One and one-quarter milliliters of solution is pipetted onto a standard volume of dust in 1 -ounce jars, and the acetone allowed to evaporate. Twenty-five milliliters of moist soil and about three wheat seeds are placed in the jar, capped, and the contents thoroughly mixed. Ten False wireworm larvae (Eleodes suturalis ), 10 days old, are then placed in each jar. Mortality counts are made after 6 days and percent mortality determined.

[2] = system: Southern corn rootworm larvae (Diabrotica undecimpunctata); assay: Southern Corn Rootworm Control (treated soil, dust on talc); assay type: in vivo; details: 144 h, potting soil, mortality after 6 days, read-out: Percent Control of Southern Corn Rootworm Larvae; for mortality at 1120.85 g/ha: 1 lbs./Acre; for mortality at 11208.5 g/ha: 10 lbs./Acre; for mortality at 56042.5 g/ha: 50 lbs./Acre
Protocol: as §1, with “200 millet” for “three wheat”, “capped” for “capped,”, “second-instar” for “False wireworm”, “of the Southern corn rootworm (Diabrotica undecimpunctata )” for “(Eleodes suturalis ), 10 days old,”

[3] = Mammalian Toxicity Studies (LD50 for Mice); set-up: species or system mice (Carworth Farms Nelson, CFI strain); details: mouse, in vivo; 14-day observation; corn oil
Protocol: (§2) Twenty male albino rats or mice of the Carworth Farms Nelson strain (CFI strain for mice)(or other suitable strain) weighing approximately 90 to 120 grams (18-20g. for mice) are selected. Basically, these animals are fasted 24 hours before dosing. Mice are not fasted.
(§3) For materials which are soluble or easily dispersed in an aqueous medium, a 20% solution or suspension is prepared in an aqueous solution of 0.2% agar and 0.1% "Tween" 80. The same series of dosages (grams or milliliters of material per kilogram of animal body weight) are used for all materials in this test. If no previous information is available on the compound or its analogs, a maximum dosage of 10 g/kg is selected to differ by a geometric factor of 2 from the preceding dose, i.e., 10, 5, 2.5, 1.25 g/kg. A sufficient number of dosages are given so as to bracket a 50% response. The animals are observed for several hours after dosing and daily over a 14-day observation period. At the end of this period the survivors are sacrificed, weighed and subjected to a gross autopsy. The results are tabulated and the LD50 is calculated by the method of moving averages using the tables constructed by Weil. [Weil, C. S., Biometrics, 8: (3), 249-263, 1952].
(§4) Samples received as liquids may be administered undiluted or as suspensions in aqueous Agar-Tween, depending on the viscosity of the material. If the material is believed to be relatively non-toxic, an initial maximum dosage of 10 ml/kg is selected and subsequent dosages are selected based upon the severity of gross signs of toxicity.
(§5) For organic phosphate anticholinesterase insecticides, the procedure is modified somewhat. The phosphates are readied for administration by preparing a solution or dispersion in corn oil (Mazola), the concentration of which is adjusted so that the total volume of the dose is 20 ml/kg ([…]) in every case. The initial solution is prepared by deciding upon the maximum dosage in mg/kg to be administered and preparing 50 ml. (10 in mouse test) of this solution of such a concentration that the desired dosage in mg/kg is delivered when 2 ml. (0.5 ml. in mouse test) of the solution is administered for 100 g (20 g in mouse) of rat body weight. Serial dilutions differing by a factor of two are then prepared for each lower dosage level.

[4] = Mammalian Toxicity Studies (LD50 for Rats); set-up: species or system male albino rats (Carworth Farms Nelson strain); details: rat, in vivo; 14-day observation; corn oil
Protocol: as §2, §3, §4, §5

Mites = assay: Cut-Stem Systemic Test (Mites); assay type: in vivo; details: 100 ppm. emulsion, 3 days
Protocol: (§6) The compound to be tested is formulated as an emulsion containing 0.1 gram of test material, 0.2 gram of Alrodyne 315 emulsifier, 10 ml. of acetone and 90 ml. of water. This is diluted tenfold with water to give a 100 ppm. emulsion for the initial test. A sieva lima bean plant with only the primary leaves unfolded is cut off just above soil level and inserted into a 2-ounce bottle of 100 ppm. emulsion and held in place by a bit of cotton wrapped around the stem. The bottle is then placed in a ventilated box with the leaves extending outside the box, such that any possible fumes from the compound will be drawn out the end of the box rather than rising to affect the test leaves. After holding 3 days at 80° F. and 60% R.H., one leaf from each plant is placed on a moist filter paper in the bottom of a petri dish. Ten third-instar Southern armyworm larvae are then added to each dish and mortality counts made after holding another 3 days at 80° F. and 60% R.H.
The same procedure described above is employed in the mite systemic evaluation excepting that the sieva lima bean leaves are infested with mites, both adult and nymphs, while the leaves are in the ventilated box. After 3 days the leaves are removed and examined under a microscope to determine percent mortality. Data obtained are reported in the Table IV below where it can be seen that the compounds of the present invention are systemically effective insecticidal agents.

Southern armyworm larvae = assay: Cut-Stem Systemic Test (Southern Armyworm); assay type: in vivo; details: Spodoptera eridania, 72 h, read-out: % Mortality, Southern Armyworms (Systemic Insecticidal Activity)
Protocol: as §6

Rats = system: Rats; set-up: unit not given here; details: Value reported in the literature; 20160 min; cited from earlier work
[5] = cut-stem, 100 ppm. emulsion, larvae held 3 days

CCOP(=S)(OCC)SCSC(C)(C)c1ccccc1 [Example 2, S-(α,α-Dimethylbenzylthio)methyl O,O-Diethyl Phosphorodithioate]
mortality at 1120.85 g/ha [1]: 0% | mortality at 11208.5 g/ha [1]: 100% | mortality at 56042.5 g/ha [1]: 100% | mortality at 1120.85 g/ha [2]: 90% | mortality at 11208.5 g/ha [2]: 100% | mortality at 56042.5 g/ha [2]: 100% | LD50 at 336 h [3]: 71 mg/kg | LD50 at 336 h [4]: 18 mg/kg | % Mortality, Mites (Systemic Insecticidal Activity) (Mites): 80% | mortality at 100 µg/mL (Southern armyworm larvae): 100%

COP(=S)(OC)SCSC(C)(C)c1ccccc1 [Example 5, S-(α,α-Dimethylbenzylthio)methyl O,O-Dimethyl Phosphorodithioate]
mortality at 1120.85 g/ha [1]: 100% | mortality at 11208.5 g/ha [1]: 100% | mortality at 56042.5 g/ha [1]: 100% | mortality at 1120.85 g/ha [2]: 100% | mortality at 11208.5 g/ha [2]: 100% | mortality at 56042.5 g/ha [2]: 100% | LD50 at 336 h [3]: 117 mg/kg | LD50 at 336 h [4]: 28 mg/kg

COP(=S)(OC)SCSC(C)(C)c1ccc(Cl)cc1 [Example 7, S-(p-Chloro-α,α-dimethylbenzylthio)methyl O,O-Dimethyl Phosphorodithioate]
mortality at 1120.85 g/ha [2]: 100% | mortality at 11208.5 g/ha [2]: 100% | mortality at 56042.5 g/ha [2]: 100% | LD50 at 336 h [4]: 230 mg/kg | % Mortality, Mites (Systemic Insecticidal Activity) (Mites): 100% | mortality at 100 µg/mL (Southern armyworm larvae; [5]): 100%

CCOP(=S)(OCC)SCSC(C)(C)c1ccc(Cl)c(Cl)c1 [Example 8, S-(3,4-Dichloro-α,α-dimethylbenzylthio)methyl O,O-Diethyl Phophorodithioate]
LD50 at 336 h [4]: 100 mg/kg | % Mortality, Mites (Systemic Insecticidal Activity) (Mites): 100% | mortality at 100 µg/mL (Southern armyworm larvae; [5]): 100%

COP(=S)(OC)SCSC(C)(C)c1ccc(Cl)c(Cl)c1 [Example 11, S-(3,4-Dichloro-α,α-dimethylbenzylthio)methyl O,O-Dimethyl Phosphorodithioate]
mortality at 1120.85 g/ha [2]: 100% | mortality at 11208.5 g/ha [2]: 100% | mortality at 56042.5 g/ha [2]: 100% | LD50 at 336 h [4]: > 200 mg/kg | % Mortality, Mites (Systemic Insecticidal Activity) (Mites): 30% | mortality at 100 µg/mL (Southern armyworm larvae; [5]): 90%

CCCSP(=O)(OCC)SCSC(C)(C)c1ccccc1 (stereo not drawn) [Example 12, S-(α,α-Dimethylbenzylthio)methyl O-Ethyl S-Propyl Phosphorodithioate]
mortality at 1120.85 g/ha [2]: 0% | mortality at 11208.5 g/ha [2]: 100% | mortality at 56042.5 g/ha [2]: 100% | LD50 at 336 h [4]: 34 mg/kg | % Mortality, Mites (Systemic Insecticidal Activity) (Mites): 90% | mortality at 100 µg/mL (Southern armyworm larvae; [5]): 0%

COP(=S)(OC)SCSC(C)(C)c1ccc(Br)cc1 [Example 13, S-(p-Bromo-α,α-dimethylbenzylthio)methyl O,O-Dimethyl Phosphordithioate]
mortality at 1120.85 g/ha [2]: 90% | mortality at 11208.5 g/ha [2]: 100% | mortality at 56042.5 g/ha [2]: 100% | LD50 at 336 h [4]: 280 mg/kg | % Mortality, Mites (Systemic Insecticidal Activity) (Mites): 100% | mortality at 100 µg/mL (Southern armyworm larvae; [5]): 100%

CCOP(=S)(OCC)SCSC(C)c1ccccc1 (stereo not drawn) [Example 15, S-(α-Methylbenzylthio)methyl O,O-Diethyl Phosphorodithioate]
mortality at 1120.85 g/ha [1]: 0% | mortality at 11208.5 g/ha [1]: 100% | mortality at 56042.5 g/ha [1]: 100% | mortality at 1120.85 g/ha [2]: 80% | mortality at 11208.5 g/ha [2]: 100% | mortality at 56042.5 g/ha [2]: 100% | LD50 at 336 h [3]: 67 mg/kg

COP(=O)(SC)SCSC(C)(C)c1ccc(Cl)cc1 (stereo not drawn) [Example 16, S-(p-Chloro-α,α-dimethylbenzylthio)methyl O-Methyl S-Methyl Phosphorodithioate]
mortality at 1120.85 g/ha [2]: 0% | mortality at 11208.5 g/ha [2]: 100% | mortality at 56042.5 g/ha [2]: 100% | % Mortality, Mites (Systemic Insecticidal Activity) (Mites): 30% | mortality at 100 µg/mL (Southern armyworm larvae; [5]): 0%

CCOP(=S)(OCC)SC[S+]([O-])C(C)(C)c1ccccc1 (stereo not drawn) [Example 27, S-(α,α-Dimethylbenzylsulfinyl)methyl O,O-Diethyl Phosphorodithioate]
mortality at 1120.85 g/ha [1]: 0% | mortality at 11208.5 g/ha [1]: 100% | mortality at 56042.5 g/ha [1]: 100% | mortality at 1120.85 g/ha [2]: 0% | mortality at 11208.5 g/ha [2]: 100% | mortality at 56042.5 g/ha [2]: 100% | LD50 at 336 h [3]: 88 mg/kg

CCOP(=S)(OCC)SCSCC [reference compound]
LD50 at 336 h [3]: 5.6 mg/kg | LD50 at 336 h [4]: 1 to 5 mg/kg

CCOP(=S)(OCC)SCSCc1ccccc1 [reference compound]
LD50 at 336 h [3]: 67 mg/kg | LD50 Rats (Rats): 25
